Patent US20240262803A1, “COMPOUNDS, COMPOSITIONS AND METHODS OF TREATING DISORDERS” (Chungdu Anticancer Bioscience Ltd, priority 2021, published 2024)
Where two headings read alike, the source gives them in different places.

Assays:
Type in all cases: cell-based
[1] = test system: breast cancer cell line MDA-MB-231; assay: Minimal effective concentration that elicits polyploidy, MDA-MB-231; conditions: Homo sapiens, read-out: MECP: Minimal effective concentration that elicits polyploidy
[2] = test system: colon cancer cell line SW460; assay: MTT assay of cellular proliferation, SW460; conditions: Homo sapiens, SW480; read-out: EC50: Concentration that inhibits 50% of proliferation
Outline: (§1)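 EC50 values come from optical density at 570 nm of solubilized MTT formazan, added for 3˜4 h after compound exposure. Cells in DMEM with 5% FBS were treated at 1 nM to 10 μM once 20˜30% confluent.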

[3] = test system: liver cancer cell line T2 HCC; assay: MTT assay of cellular proliferation, T2 HCC; conditions: Mus musculus, read-out: EC50: Concentration that inhibits 50% of proliferation
Outline: as §1

RPEMYC^H2B-GFP cells [4] = assay: Mechanism-informed phenotypic screening assay (mitotic arrest, polyploidy; GE IN-Cell Analyzer 2000); conditions: 20 nM to 20 μM, 24, 48 or 72 hours, read-out: Min. Effective conc. for polyploidy (≥5%)
Outline: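 RPEMYC^H2B-GFP cells expressing Histone 2B-EGFP were treated with compounds at 20 nM to 20 μM. Mitotic arrest and DNA content were imaged at 24, 48 or 72 h. Minimal effective concentrations eliciting polyploidy are given as letter bins.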

[5] = test system: gastric cancer cell line NCI-N87; assay: Minimal effective concentration that elicits polyploidy, NCI-N87; conditions: Homo sapiens, read-out: MECP: Minimal effective concentration that elicits polyploidy
[6] = test system: colon cancer cell line HCT116; assay: MTT assay of cellular proliferation, HCT116; conditions: Homo sapiens, HCT-116, read-out: EC50: Concentration that inhibits 50% of proliferation
Outline: as §1

[7] = test system: lung cancer cell line NCI-H23; assay: MTT assay of cellular proliferation, NCI-H23; conditions: Homo sapiens, read-out: EC50: Concentration that inhibits 50% of proliferation
Outline: as §1

[8] = test system: lung cancer cell line A549; assay: Minimal effective concentration that elicits polyploidy, A549; conditions: Homo sapiens, read-out: MECP: Minimal effective concentration that elicits polyploidy
[9] = test system: lung cancer cell line NCI-H23; assay: Minimal effective concentration that elicits polyploidy, NCI-H23; conditions: Homo sapiens, read-out: MECP: Minimal effective concentration that elicits polyploidy
[10] = test system: cervical cancer cell line Hela; assay: MTT assay of cellular proliferation, Hela; conditions: Homo sapiens, read-out: EC50: Concentration that inhibits 50% of proliferation
Outline: as §1

RPEMYC^H2B-GFP cells [11] = assay: Mechanism-informed phenotypic screening assay (mitotic arrest, polyploidy; GE IN-Cell Analyzer 2000); conditions: 20 nM to 20 μM, 24, 48 or 72 hours, read-out: Mitotic Arrest (≥5%)
[12] = test system: cervical cancer cell line Hela; assay: Minimal effective concentration that elicits polyploidy, Hela; conditions: Homo sapiens, read-out: MECP: Minimal effective concentration that elicits polyploidy
[13] = test system: lung cancer cell line A549; assay: MTT assay of cellular proliferation, A549; conditions: Homo sapiens, read-out: EC50: Concentration that inhibits 50% of proliferation
Outline: as §1

[14] = test system: breast cancer cell line MDA-MB-231; assay: MTT assay of cellular proliferation, MDA-MB-231; conditions: Homo sapiens, read-out: EC50: Concentration that inhibits 50% of proliferation
Outline: as §1

[15] = test system: liver cancer cell line T2 HCC; assay: Minimal effective concentration that elicits polyploidy, T2 HCC; conditions: Mus musculus, read-out: MECP: Minimal effective concentration that elicits polyploidy
[16] = test system: colon cancer cell line HCT116; assay: Minimal effective concentration that elicits polyploidy, HCT116; conditions: Homo sapiens, HCT-116, read-out: MECP: Minimal effective concentration that elicits polyploidy
SW480 = assay: Minimal effective concentration that elicits polyploidy, SW480; conditions: Homo sapiens, read-out: MECP: Minimal effective concentration that elicits polyploidy
[17] = test system: gastric cancer cell line NCI-N87; assay: MTT assay of cellular proliferation, NCI-N87; conditions: Homo sapiens, read-out: EC50: Concentration that inhibits 50% of proliferation
Outline: as §1

| EC50 [2] | EC50 [3] | EC50 [6] | EC50 [7] | EC50 [10] | EC50 [13] | EC50 [14] | EC50 [17] | SMILES | minimal effective concentration [1] | minimal effective concentration (RPEMYC^H2B-GFP cells [4]) | minimal effective concentration [5] | minimal effective concentration [8] | minimal effective concentration [9] | minimal effective concentration (RPEMYC^H2B-GFP cells [11]) | minimal effective concentration [12] | minimal effective concentration [15] | minimal effective concentration [16] | minimal effective concentration (SW480) |
| --- | --- | --- | --- | --- | --- | --- | --- | --- | --- | --- | --- | --- | --- | --- | --- | --- | --- | --- |
| 0.001 to 1 µM | 0.001 to 1 µM | 0.001 to 1 µM | 0.001 to 1 µM | 0.001 to 1 µM | 0.001 to 1 µM | 0.001 to 1 µM | 0.001 to 1 µM | CNC(=O)c1cc(Oc2ncccc2-c2ccnc(C)c2)cc(C(F)(F)F)c1 [Compound 37, N-methyl-3-((2′-methyl-[3,4′-bipyridin]-2-yl)oxy)-5-(trifluoromethyl)benzamide] | 0.001 to 1 µM | 1 µM | 0.001 to 1 µM | 0.001 to 1 µM | 0.001 to 1 µM | 1 µM | 0.001 to 1 µM | 0.001 to 1 µM | 0.001 to 1 µM | 0.001 to 1 µM |
| 0.001 to 1 µM | 0.001 to 1 µM | 0.001 to 1 µM | 0.001 to 1 µM | 0.001 to 1 µM | 0.001 to 1 µM | 0.001 to 1 µM | 1 to 10 µM | CNC(=O)c1cc(OC)cc(Oc2ncccc2-c2ccncc2)c1 [Compound 4, 3-([3,4′-bipyridin]-2-yloxy)-5-methoxy-N-methylbenzamide] | 0.001 to 1 µM | 1 µM | 0.001 to 1 µM | 0.001 to 1 µM | 0.001 to 1 µM | 1 µM | 0.001 to 1 µM | 0.001 to 1 µM | 0.001 to 1 µM | 0.001 to 1 µM |
| 0.001 to 1 µM | 0.001 to 1 µM | 0.001 to 1 µM | 0.001 to 1 µM | 0.001 to 1 µM | 0.001 to 1 µM | 0.001 to 1 µM | 0.001 to 1 µM | COc1cc(Oc2ncccc2-c2ccnc(OC)c2)cc(-n2cccn2)c1 [Compound 31, 2′-methoxy-2-(3-methoxy-5-(1H-pyrazol-1-yl)phenoxy)-3,4′-bipyridine] | 0.001 to 1 µM | 1 µM | 0.001 to 1 µM | 0.001 to 1 µM | 0.001 to 1 µM | 1 µM | 0.001 to 1 µM | 0.001 to 1 µM | 0.001 to 1 µM | 0.001 to 1 µM |
| 0.001 to 1 µM | 0.001 to 1 µM | 0.001 to 1 µM | 0.001 to 1 µM | 0.001 to 1 µM | 0.001 to 1 µM | 0.001 to 1 µM | 0.001 to 1 µM | COc1cc(OC)cc(Oc2ncccc2-c2cc(C)ncn2)c1 [Compound 63, 4-(2-(3,5-dimethoxyphenoxy)pyridin-3-yl)-6-methylpyrimidine] | 0.001 to 1 µM | 1 µM | 0.001 to 1 µM | 0.001 to 1 µM | 0.001 to 1 µM | 1 µM | 0.001 to 1 µM | 0.001 to 1 µM | 0.001 to 1 µM | 0.001 to 1 µM |
| 0.001 to 1 µM | 0.001 to 1 µM | 0.001 to 1 µM | 0.001 to 1 µM | 0.001 to 1 µM | 0.001 to 1 µM | 0.001 to 1 µM | 0.001 to 1 µM | COc1cc(NC(C)=O)cc(Oc2ncccc2-c2ccnc(Cl)c2)c1 [Compound 46, N-(3-((2′-chloro-[3,4′-bipyridin]-2-yl)oxy)-5-methoxyphenyl)acetamide] | 0.001 to 1 µM | 1 µM | 0.001 to 1 µM | 0.001 to 1 µM | 0.001 to 1 µM | 1 µM | 0.001 to 1 µM | 0.001 to 1 µM | 0.001 to 1 µM | 0.001 to 1 µM |
| 0.001 to 1 µM | 0.001 to 1 µM | 0.001 to 1 µM | 0.001 to 1 µM | 0.001 to 1 µM | 0.001 to 1 µM | 0.001 to 1 µM | 0.001 to 1 µM | CNC(=O)c1cc(Oc2ncccc2-c2ccnc(C)c2)cc(OC(F)(F)F)c1 [Compound 39, N-methyl-3-((2′-methyl-[3,4′-bipyridin]-2-yl)oxy)-5-(trifluoromethoxy)benzamide] | 0.001 to 1 µM | 1 µM | 0.001 to 1 µM | 0.001 to 1 µM | 0.001 to 1 µM | 1 µM | 0.001 to 1 µM | 0.001 to 1 µM | 0.001 to 1 µM | 0.001 to 1 µM |
| 0.001 to 1 µM | 0.001 to 1 µM | 0.001 to 1 µM | 0.001 to 1 µM | 0.001 to 1 µM | 0.001 to 1 µM | 0.001 to 1 µM | 0.001 to 1 µM | COc1cc(Oc2ncccc2-c2ccnc(N)n2)cc(-n2cccn2)c1 [Compound 26, 4-(2-(3-methoxy-5-(1H-pyrazol-1-yl)phenoxy)pyridin-3-yl)pyrimidin-2-amine] | 0.001 to 1 µM | 1 µM | 0.001 to 1 µM | 0.001 to 1 µM | 0.001 to 1 µM | 1 µM | 0.001 to 1 µM | 0.001 to 1 µM | 0.001 to 1 µM | 0.001 to 1 µM |
